Laboratory results taken from PMC10401651, “Characterization of Uranyl (UO2^2+) Ion Binding to Amyloid Beta (Aβ) Peptides: Effects on Aβ Structure and Aggregation” (ACS Chemical Neuroscience, 2023).
Where “and” joins values, the source holds several entries; their conditions need not be identical. Equal entries are not always repeated. Where two headings read alike, the source gives them in different places.

Legend:
[1] = biological target: T1, Aβ40 (H6A, H13A, and H14A) triple-mutant, Aβ40 (NoHis) (Homo sapiens, UniProt P05067, H677A/H684A/H685A); assay: Binding affinity via Tyr10 fluorescence quenching, Aβ40 (NoHis) mutant; settings: 20 μM Aβ40 (NoHis)
T1 construct: the Aβ40 (H6A, H13A, and H14A) triple-mutant; purchased AlexoTech AB (Umeå, Sweden); host or cells: recombinant

[2] = biological target: T2, Aβ40 peptides (Homo sapiens, UniProt P05067); assay: Fluorescence measurements of dityrosine cross-link formation; format: biochemical; settings: 100 μM uranyl acetate, 10 μM Aβ40, 20 mM MES pH 7.3, 24 h, room temperature
T2 construct: namely, the Aβ40 peptide; purchased AlexoTech AB (Umeå, Sweden); host or cells: recombinant
Method: Two samples of Aβ40 peptides were studied. The control sample contained 100 μM EDTA to remove possible contaminating metal ions that could promote dityrosine formation. […] For both samples, the fluorescence spectra are virtually identical before and after 24 h of incubation (Figure 6). Specifically, no peak around 410 nm, indicative of dityrosine,[129],[130] has emerged.
Fluorescence emission spectra between 330 and 480 nm (excitation at 315 nm) were recorded at room temperature with a Jobin Yvon Horiba Fluorolog 3 fluorescence spectrometer (Longjumeau, France) for two samples of 10 μM Aβ40 peptide in 20 mM MES buffer, pH 7.3. […] The control sample contained 100 μM of the chelator EDTA to remove any free metal ions. All measurements were conducted in triplicate using a quartz cuvette with a 4 mm path length and containing a 0.7 mL liquid sample. Spectra were recorded after 0 and 24 h of incubation, during which the samples were kept at room temperature without agitation or other treatment.

[3] = biological target: T3, Aβ42 oligomers (Homo sapiens, UniProt P05067); assay: BN-PAGE analysis of SDS-stabilized Aβ42 oligomer formation; format: biochemical
T3 construct: Synthetic lyophilized wt Aβ (1–42) peptides, abbreviated as Aβ42; purchased JPT Peptide Technologies (Germany); host or cells: synthetic peptide
Method: Treatment of Aβ42 peptides with low concentrations (≤7 mM) of SDS, i.e., below the critical micelle concentration for SDS, which is 8.2 mM in water at 25 °C,[152] leads to the formation of stable and homogeneous Aβ42 oligomers of certain sizes and conformations.[131],[132],[153] To prepare such oligomers, size exclusion chromatography (SEC) was initially used to purify synthetic Aβ42 peptides into monomeric form. First, 1 mg of lyophilized Aβ42 powder was dissolved in […] of DMSO. Next, a […] HiTrap desalting column (GE Healthcare, Uppsala) was equilibrated with a 5 mM NaOH solution (pH = 12.3) and washed with a solution of 10–15 mL of 5 mM NaOD, pD = 12.7.[154] The peptide solution in DMSO was applied to the column, followed by an injection of 1.25 mL of 5 mM NaOD. The collection of peptide fractions in 5 mM NaOD on ice was started at a […] flow rate. Ten fractions of 1 mL volumes were collected in 1.5 mL Eppendorf tubes. The absorbance for each fraction at 280 nm was measured with a NanoDrop instrument (Eppendorf, Germany), and peptide concentrations were determined using a molar extinction coefficient of 1280 M^–1 cm^–1 for the single Tyr in Aβ42.[155] The peptide fractions were flash-frozen in liquid nitrogen, covered with argon gas on top in 1.5 mL Eppendorf tubes, and stored at −80 °C until used. SDS-stabilized Aβ42 oligomers of two well-defined sizes (approximately tetramers and dodecamers) were prepared according to a previously published protocol,[131] but in D2O, at a 4-fold lower peptide concentration and without the original dilution step.[132]
Thus, 4–16% Bis–Tris Novex gels (Thermo Fisher Scientific, USA) were loaded with 10 μL samples containing Aβ42 oligomer solutions alongside alongside the Amersham high MW calibration kit for native electrophoresis (GE Healthcare, USA). The gels were run at 4 °C using the electrophoresis system according to the Invitrogen instructions (Thermo Fisher Scientific, USA) and then stained with the Pierce Silver Staining Kit according to the manufacturer’s instructions (Thermo Fisher Scientific, USA). […]

[4] = biological target: T1, Aβ40 (H6A, H13A, and H14A) triple-mutant, Aβ40 (NoHis); assay: Binding affinity via Tyr10 fluorescence quenching, Aβ40 (NoHis) mutant; settings: 20 μM Aβ40 (NoHis); remark: listed apart in the source
Excerpt: Synthetic lyophilized wt Aβ (1–42) peptides, abbreviated as Aβ42, with the primary sequence DAEFR5HDSGY10EVHHQ15KLVFF20AEDVG25SNKGA30IIGLM35VGGVV40IA, were purchased from JPT Peptide Technologies (Germany). Two recombinant Aβ variants were purchased as lyophilized powder from AlexoTech AB (Umeå, Sweden), namely, the Aβ40 peptide and the Aβ40 (H6A, H13A, and H14A) triple-mutant, which in the following is referred to as the Aβ40 (NoHis) mutant. The Aβ40 peptide was also purchased uniformly single-labeled with ^15N isotopes. All Aβ40 peptide variants were stored at −80 °C until use. Before measurements, they were dissolved in 10 mM NaOH and then sonicated in an ice bath for 5 min to avoid pre-formed aggregates. The samples were then diluted in either sodium phosphate buffer at pH 7.3 or in MES buffer at pH 7.3 or 5.1. The peptide concentrations were initially estimated from the weight of the dry powder and then more accurately determined with a NanoDrop spectrophotometer.
Fluorescence measurements were conducted on a Jobin Yvon Horiba Fluorolog 3 fluorescence spectrophotometer (Longjumeau, France) using a quartz cuvette with a 4 mm path length. The fluorescence emission intensity of samples containing 20 μM Aβ peptides in 20 mM MES buffer, at either pH 7.3 or pH 5.5 and without or with 50 mM SDS detergent present, was measured at 305 nm (excitation wavelength 276 nm) at 20 °C. […] Apparent dissociation constants (KD^App) were determined by fitting the plots to eq 2 [drawing 2] 2 where I0 is the initial fluorescence intensity with no added UO2^2+ ions, I∞ is the steady-state intensity at the end of the titration, [Ab] is the protein concentration, and [U] is the concentration of added UO2^2+ ions.[121],[160]

T1 sequence (P05067 672-711 H677A/H684A/H685A): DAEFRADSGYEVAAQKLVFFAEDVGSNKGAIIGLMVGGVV
T3 sequence (P05067 672-713 limits assumed): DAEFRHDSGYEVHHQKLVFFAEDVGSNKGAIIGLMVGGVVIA
T2 sequence (P05067 672-711 limits assumed): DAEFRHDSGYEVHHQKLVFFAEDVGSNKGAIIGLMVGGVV

## CC(=O)[O-].CC(=O)[O-].[O]=[U+2]=[O] [uranyl ions, uranyl acetate]
[1]; pH 5.1 + 50 mM SDS, read-out: KD^App, single replicates
  Kd: 22.3 µM and 30.7 µM and 27.9 µM
[1]; pH 5.1 + 50 mM SDS, three replicates, read-out: KD^App, average
  Kd: 27 ± 4 µM
[1]; pH 5.1, 20 mM MES, read-out: KD^App, single replicates
  Kd: 2.3 µM and 2.8 µM and 4 µM
[1]; pH 5.1, 20 mM MES, three replicates, read-out: KD^App, average
  Kd: 3 ± 1 µM
[2]
  formation of dityrosine cross-links: do not induce the formation of dityrosine cross-links
[3]; 0.05% SDS, 10, 100, 1000 μM uranyl acetate, 80–100 μM Aβ42
  formation of AβO0.05%SDS oligomers (BN-PAGE): no well-defined uniform oligomers were observed
[3]; 0.05% SDS, Aβ42 oligomers
  concentration required for full disruption of homogeneous AβO0.05%SDS oligomers: 10 µM
[3]; 0.2% SDS, 10, 100, 1000 μM uranyl, 80–100 μM Aβ42
  formation of AβO0.2%SDS oligomers (BN-PAGE): gradually lower amounts of stable AβO0.2%SDS oligomers
[4]; pH 7.3 + 50 mM SDS, read-out: KD^App, single replicates
  Kd: 119 µM and 124 µM and 116 µM
[4]; pH 7.3 + 50 mM SDS, three replicates, read-out: KD^App, average
  Kd: 120 ± 4 µM
[4]; pH 7.3, 20 mM MES, read-out: KD^App, single replicates
  Kd: 62 µM and 86 µM and 79 µM
[4]; pH 7.3, 20 mM MES, three replicates, read-out: KD^App, average
  Kd: 76 ± 11 µM
